Patent US11572369B2, “Bicyclic pyridine compositions and methods of using the same for cancer therapy” (UNIVERSITY OF SOUTH CAROLINA, priority 2019, dated 2023)

Experiments:
Test in all cases: KINOMEscan
Assay type in all cases: binding
Details in all cases: 2000 nM
CDK11 (CDK19) = target: T1, CDK11 (CDK19) (Homo sapiens, UniProt Q9BWU1)
T1 construct: purchased DiscoverX (KINOMEscan service)

EGFR(L858R) = target: T2, EGFR(L858R) (Homo sapiens, UniProt P00533, L858R)
T2 construct: purchased DiscoveRx (KINOMEscan scanMAX panel)

ACVR2B = target: T3, ACVR2B (Homo sapiens, UniProt Q13705)
T3 construct: purchased DiscoveRx (KINOMEscan scanMAX panel, service)

SNRK = target: T4, SNRK (Homo sapiens, UniProt Q9NRH2)
T4 construct: purchased KINOMEscan (DiscoveRx)

JNK1 = target: T5, JNK1 (Homo sapiens, UniProt P45983)
T5 construct: DNA label (for qPCR read-out); purchased DiscoveRx (KINOMEscan scanMAX panel)
T5 sequence (P45983 whole entry): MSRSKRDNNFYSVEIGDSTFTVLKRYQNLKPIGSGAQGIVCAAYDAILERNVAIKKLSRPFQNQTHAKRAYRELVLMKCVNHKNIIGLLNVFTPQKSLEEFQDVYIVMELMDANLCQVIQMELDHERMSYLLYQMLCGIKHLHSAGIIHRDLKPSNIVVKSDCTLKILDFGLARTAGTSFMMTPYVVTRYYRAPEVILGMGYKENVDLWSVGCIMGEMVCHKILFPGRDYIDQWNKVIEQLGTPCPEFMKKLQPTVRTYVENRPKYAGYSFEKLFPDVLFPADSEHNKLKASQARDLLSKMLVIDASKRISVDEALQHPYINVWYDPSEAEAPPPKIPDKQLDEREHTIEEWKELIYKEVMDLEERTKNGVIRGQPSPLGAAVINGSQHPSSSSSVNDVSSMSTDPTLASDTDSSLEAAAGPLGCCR

PIK3CG = target: T6, PIK3CG (Homo sapiens, UniProt P48736)
T6 construct: DNA label; purchased DiscoveRx (KINOMEscan scanMAX panel)

TLK1 = target: T7, TLK1 (Homo sapiens, UniProt Q9UKI8)
T7 construct: DNA label (qPCR read-out); purchased KINOMEscan (DiscoveRx) ScanMAX panel
T7 sequence (Q9UKI8 whole entry): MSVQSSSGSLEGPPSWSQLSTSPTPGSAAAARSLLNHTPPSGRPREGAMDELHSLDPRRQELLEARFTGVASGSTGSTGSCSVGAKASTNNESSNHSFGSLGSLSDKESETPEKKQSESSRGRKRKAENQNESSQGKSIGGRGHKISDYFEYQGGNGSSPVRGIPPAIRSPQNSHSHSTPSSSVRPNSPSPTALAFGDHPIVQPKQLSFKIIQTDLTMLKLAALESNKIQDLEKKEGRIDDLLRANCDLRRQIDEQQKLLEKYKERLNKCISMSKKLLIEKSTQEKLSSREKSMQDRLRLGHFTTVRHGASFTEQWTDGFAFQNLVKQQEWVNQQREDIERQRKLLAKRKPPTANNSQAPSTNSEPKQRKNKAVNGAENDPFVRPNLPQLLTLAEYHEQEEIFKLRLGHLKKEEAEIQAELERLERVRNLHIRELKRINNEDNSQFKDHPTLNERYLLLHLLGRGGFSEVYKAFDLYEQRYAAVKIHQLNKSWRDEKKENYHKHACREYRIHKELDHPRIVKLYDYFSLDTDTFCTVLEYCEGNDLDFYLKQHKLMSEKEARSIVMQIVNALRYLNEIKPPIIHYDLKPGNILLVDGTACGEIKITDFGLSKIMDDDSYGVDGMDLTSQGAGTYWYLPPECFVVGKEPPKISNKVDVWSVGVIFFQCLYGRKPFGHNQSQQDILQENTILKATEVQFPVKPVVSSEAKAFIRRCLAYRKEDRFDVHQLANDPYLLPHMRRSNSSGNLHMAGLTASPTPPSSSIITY

AXL = target: T8, AXL (Homo sapiens, UniProt P30530)
T8 construct: DNA label (qPCR read-out); purchased KINOMEscan scanMAX panel (DiscoveRx)

MAPKAPK2 = MAPKAPK2 (Homo sapiens, UniProt P49137)
MAPKAPK2, sequence (P49137 whole entry): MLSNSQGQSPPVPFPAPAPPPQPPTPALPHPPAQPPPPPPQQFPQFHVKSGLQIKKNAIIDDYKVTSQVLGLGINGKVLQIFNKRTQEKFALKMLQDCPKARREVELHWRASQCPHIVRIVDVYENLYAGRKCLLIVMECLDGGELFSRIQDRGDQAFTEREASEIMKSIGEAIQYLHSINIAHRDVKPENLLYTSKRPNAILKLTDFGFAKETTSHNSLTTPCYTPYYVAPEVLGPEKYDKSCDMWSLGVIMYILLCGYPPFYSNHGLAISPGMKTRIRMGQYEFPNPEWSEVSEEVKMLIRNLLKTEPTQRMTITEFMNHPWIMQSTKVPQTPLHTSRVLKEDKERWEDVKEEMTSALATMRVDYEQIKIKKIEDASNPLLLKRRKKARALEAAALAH

HIPK2 = target: T9, HIPK2 (Homo sapiens, UniProt Q9H2X6)
T9 construct: DNA label (for qPCR read-out); purchased DiscoveRx (KINOMEscan scanMAX panel, contract assay)

EPHB4 = target: T10, EPHB4 (Homo sapiens, UniProt P54760)
T10 construct: purchased DiscoveRx (KINOMEscan scanMAX panel)
T10 sequence (P54760 16-987): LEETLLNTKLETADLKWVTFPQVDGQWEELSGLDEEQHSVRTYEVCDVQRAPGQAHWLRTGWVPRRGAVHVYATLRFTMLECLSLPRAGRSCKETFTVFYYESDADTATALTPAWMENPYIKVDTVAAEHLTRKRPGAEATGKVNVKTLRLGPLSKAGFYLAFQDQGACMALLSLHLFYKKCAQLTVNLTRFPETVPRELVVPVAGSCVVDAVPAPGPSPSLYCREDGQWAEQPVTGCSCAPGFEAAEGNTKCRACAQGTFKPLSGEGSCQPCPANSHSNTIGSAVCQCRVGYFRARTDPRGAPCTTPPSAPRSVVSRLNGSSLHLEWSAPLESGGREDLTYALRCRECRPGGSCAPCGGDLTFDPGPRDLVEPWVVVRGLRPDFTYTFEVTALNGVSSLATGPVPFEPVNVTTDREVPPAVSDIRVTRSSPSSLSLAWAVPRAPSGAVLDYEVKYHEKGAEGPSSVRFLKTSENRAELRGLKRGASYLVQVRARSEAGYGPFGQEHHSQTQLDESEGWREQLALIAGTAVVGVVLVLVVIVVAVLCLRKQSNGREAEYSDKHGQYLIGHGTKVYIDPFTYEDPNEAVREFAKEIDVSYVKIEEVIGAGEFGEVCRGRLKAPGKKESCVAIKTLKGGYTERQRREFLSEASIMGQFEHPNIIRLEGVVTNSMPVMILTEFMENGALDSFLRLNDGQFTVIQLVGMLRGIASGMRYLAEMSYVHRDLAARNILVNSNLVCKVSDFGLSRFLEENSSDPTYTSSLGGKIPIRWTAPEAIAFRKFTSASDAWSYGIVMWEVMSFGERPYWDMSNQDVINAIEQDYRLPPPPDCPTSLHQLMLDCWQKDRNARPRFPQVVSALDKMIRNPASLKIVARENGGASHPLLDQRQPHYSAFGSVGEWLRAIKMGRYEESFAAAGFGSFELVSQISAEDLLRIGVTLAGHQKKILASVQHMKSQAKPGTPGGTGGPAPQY

EGFR(L861Q) = target: T11, EGFR(L861Q) (Homo sapiens, UniProt P00533, L861Q)
T11 construct: purchased DiscoveRx (KINOMEscan scanMAX panel)

ROS1 = target: T12, ROS1 (Homo sapiens, UniProt P08922)
T12 construct: DNA label (qPCR read-out); purchased DiscoveRx (KINOMEscan ScanMAX panel)

HIPK1 = target: T13, HIPK1 (Homo sapiens, UniProt Q86Z02)
T13 construct: DNA label (for qPCR read-out); purchased DiscoveRx (KINOMEscan scanMAX panel, contract assay)

PIK3CB = target: T14, PIK3CB (Homo sapiens, UniProt P42338)
T14 construct: DNA label; purchased DiscoveRx (KINOMEscan scanMAX panel)

DRAK2 = target: T15, DRAK2 (Homo sapiens, UniProt O94768)
T15 construct: DNA label (qPCR read-out); purchased KINOMEscan (DiscoveRx) panel

IKK-epsilon = target: T16, IKK-epsilon (Homo sapiens, UniProt Q14164)
T16 construct: DNA label (qPCR read-out); purchased KINOMEscan (DiscoveRx) ScanMAX panel

CAMK1G = target: T17, CAMK1G (Homo sapiens, UniProt Q96NX5)
T17 construct: DNA label (qPCR read-out); purchased KINOMEscan (ScanMAX panel service)

WEE1 = target: T18, WEE1 (Homo sapiens, UniProt P30291)
T18 construct: purchased KINOMEscan (DiscoveRx) panel service

MAP4K3 = MAP4K3 (Homo sapiens, UniProt Q8IVH8)
NEK7 = target: T19, NEK7 (Homo sapiens, UniProt Q8TDX7)
T19 construct: DNA label (qPCR read-out); purchased KINOMEscan (ScanMAX panel service)

EPHA3 = target: T20, EPHA3 (Homo sapiens, UniProt P29320)
T20 construct: purchased DiscoveRx (KINOMEscan scanMAX panel)

FLT3(K663Q) = target: T21, FLT3(K663Q) (Homo sapiens, UniProt P36888, K663Q)
T21 construct: purchased KINOMEscan (DiscoveRx)

AKT3 = target: T22, AKT3 (Homo sapiens, UniProt Q9Y243)
T22 construct: purchased DiscoveRx (KINOMEscan scanMAX panel, service)

CDKL3 = target: T23, CDKL3 (Homo sapiens, UniProt Q8IVW4)
T23 construct: DNA label (for qPCR read-out); purchased DiscoveRx (KINOMEscan scanMAX service)

TXK = target: T24, TXK (Homo sapiens, UniProt P42681)
T24 construct: DNA label (for qPCR read-out); purchased DiscoveRx (KINOMEscan scanMAX panel)
T24 sequence (P42681 whole entry): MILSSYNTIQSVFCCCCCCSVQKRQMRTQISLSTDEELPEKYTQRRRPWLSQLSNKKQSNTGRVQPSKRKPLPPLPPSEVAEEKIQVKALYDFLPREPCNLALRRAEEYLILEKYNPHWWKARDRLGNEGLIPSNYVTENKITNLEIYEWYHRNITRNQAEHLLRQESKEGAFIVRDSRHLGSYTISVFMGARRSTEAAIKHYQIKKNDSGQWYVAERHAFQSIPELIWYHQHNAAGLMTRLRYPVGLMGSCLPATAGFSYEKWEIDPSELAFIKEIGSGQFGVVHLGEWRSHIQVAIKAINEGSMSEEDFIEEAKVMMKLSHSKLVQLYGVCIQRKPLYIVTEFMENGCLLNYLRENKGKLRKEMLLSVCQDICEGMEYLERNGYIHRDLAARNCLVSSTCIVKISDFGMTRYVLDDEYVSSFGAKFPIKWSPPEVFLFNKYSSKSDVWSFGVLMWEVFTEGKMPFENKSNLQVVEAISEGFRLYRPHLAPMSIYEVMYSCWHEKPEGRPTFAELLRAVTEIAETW

SNARK = target: T25, SNARK (Homo sapiens, UniProt Q9H093)
T25 construct: purchased KINOMEscan (DiscoveRx)

QSK = target: T26, QSK (Homo sapiens, UniProt Q9Y2K2)
T26 construct: purchased DiscoveRx (KINOMEscan scanMAX panel)

STK35 = target: T27, STK35 (Homo sapiens, UniProt Q8TDR2)
T27 construct: DNA label (for qPCR read-out); purchased DiscoveRx (KINOMEscan scanMAX panel, contract assay)

RIPK5 = target: T28, RIPK5 (Homo sapiens, UniProt Q6XUX3)
T28 construct: DNA label (qPCR read-out); purchased DiscoveRx (KINOMEscan ScanMAX panel)
T28 sequence (Q6XUX3 whole entry): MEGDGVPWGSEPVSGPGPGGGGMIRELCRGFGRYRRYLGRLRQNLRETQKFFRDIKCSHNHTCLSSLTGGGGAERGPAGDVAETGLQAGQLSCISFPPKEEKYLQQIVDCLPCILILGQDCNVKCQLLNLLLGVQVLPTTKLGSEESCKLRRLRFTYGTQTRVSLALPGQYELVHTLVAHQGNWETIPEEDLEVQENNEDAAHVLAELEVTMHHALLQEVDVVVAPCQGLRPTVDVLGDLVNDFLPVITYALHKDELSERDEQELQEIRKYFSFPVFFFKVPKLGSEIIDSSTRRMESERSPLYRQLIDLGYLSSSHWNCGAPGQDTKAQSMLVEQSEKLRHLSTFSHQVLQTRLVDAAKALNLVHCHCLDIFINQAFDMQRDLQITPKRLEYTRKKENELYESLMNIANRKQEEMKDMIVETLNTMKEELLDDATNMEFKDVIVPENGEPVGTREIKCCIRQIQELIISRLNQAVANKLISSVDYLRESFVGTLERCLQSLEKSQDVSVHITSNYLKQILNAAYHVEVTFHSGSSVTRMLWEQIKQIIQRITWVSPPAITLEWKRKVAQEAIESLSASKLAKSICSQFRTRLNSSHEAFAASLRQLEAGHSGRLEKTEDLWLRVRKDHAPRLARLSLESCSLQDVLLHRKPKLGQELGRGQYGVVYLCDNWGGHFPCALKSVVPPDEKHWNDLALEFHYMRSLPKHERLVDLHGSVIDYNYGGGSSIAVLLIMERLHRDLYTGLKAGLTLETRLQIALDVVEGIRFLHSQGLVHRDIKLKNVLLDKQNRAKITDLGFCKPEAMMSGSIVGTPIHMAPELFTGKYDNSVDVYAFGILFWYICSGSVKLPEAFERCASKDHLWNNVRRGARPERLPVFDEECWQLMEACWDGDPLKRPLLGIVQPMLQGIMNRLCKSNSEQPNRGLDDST

AKT1 = target: T29, AKT1 (Homo sapiens, UniProt P31749)
T29 construct: purchased DiscoveRx (KINOMEscan scanMAX panel, service)

PIK3CA(C420R) = target: T30, PIK3CA(C420R) (Homo sapiens, UniProt P42336, C420R)
T30 construct: DNA label; purchased DiscoveRx (KINOMEscan scanMAX panel)

MKNK1 = target: T31, MKNK1 (Homo sapiens, UniProt Q9BUB5)
T31 construct: DNA label (qPCR read-out); purchased KINOMEscan scanMAX panel (DiscoveRx)

PYK2 = target: T32, PYK2 (Homo sapiens, UniProt Q14289)
T32 construct: purchased DiscoveRx (KINOMEscan scanMAX panel)
T32 sequence (Q14289 whole entry): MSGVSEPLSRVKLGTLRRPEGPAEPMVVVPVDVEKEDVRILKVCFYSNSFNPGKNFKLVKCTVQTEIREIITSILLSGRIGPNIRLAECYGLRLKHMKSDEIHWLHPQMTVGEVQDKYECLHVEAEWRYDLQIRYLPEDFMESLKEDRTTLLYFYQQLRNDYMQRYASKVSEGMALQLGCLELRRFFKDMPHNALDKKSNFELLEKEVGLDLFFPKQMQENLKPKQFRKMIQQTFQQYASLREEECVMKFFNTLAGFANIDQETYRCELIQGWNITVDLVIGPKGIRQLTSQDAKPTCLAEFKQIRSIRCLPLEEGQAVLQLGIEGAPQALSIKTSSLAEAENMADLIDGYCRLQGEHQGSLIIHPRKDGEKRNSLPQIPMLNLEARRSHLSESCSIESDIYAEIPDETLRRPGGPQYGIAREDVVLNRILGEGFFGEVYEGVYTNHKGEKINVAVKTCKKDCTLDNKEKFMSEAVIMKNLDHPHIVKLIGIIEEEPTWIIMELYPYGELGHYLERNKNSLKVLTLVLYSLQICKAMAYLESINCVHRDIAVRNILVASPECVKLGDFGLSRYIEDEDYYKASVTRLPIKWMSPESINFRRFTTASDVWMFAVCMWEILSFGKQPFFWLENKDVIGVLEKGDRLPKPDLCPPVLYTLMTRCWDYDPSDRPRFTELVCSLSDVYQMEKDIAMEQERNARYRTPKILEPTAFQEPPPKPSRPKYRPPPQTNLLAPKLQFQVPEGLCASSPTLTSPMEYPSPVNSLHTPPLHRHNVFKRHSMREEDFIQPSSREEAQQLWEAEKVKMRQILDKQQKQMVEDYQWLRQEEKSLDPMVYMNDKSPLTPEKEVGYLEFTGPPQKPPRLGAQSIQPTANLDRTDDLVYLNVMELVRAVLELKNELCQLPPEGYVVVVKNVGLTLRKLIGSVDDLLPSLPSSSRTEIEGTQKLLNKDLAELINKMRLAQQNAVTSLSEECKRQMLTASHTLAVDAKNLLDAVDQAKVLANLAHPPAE

NIK = target: T33, NIK (Homo sapiens, UniProt Q99558)
T33 construct: DNA label (qPCR read-out); purchased KINOMEscan (ScanMAX panel service)

PRKCH = target: T34, PRKCH (Homo sapiens, UniProt P24723)
T34 construct: purchased DiscoveRx (KINOMEscan scanMAX panel)

Row | Structure (SMILES) | % Ctrl (CDK11 (CDK19)) [% Ctrl] | % Ctrl (EGFR(L858R)) [% Ctrl] | % Ctrl (ACVR2B) [% Ctrl] | % Ctrl (SNRK) [% Ctrl] | % Ctrl (JNK1) [% Ctrl] | % Ctrl (PIK3CG) [% Ctrl] | % Ctrl (TLK1) [% Ctrl] | % Ctrl (AXL) [% Ctrl] | % Ctrl (MAPKAPK2) [% Ctrl] | % Ctrl (HIPK2) [% Ctrl] | % Ctrl (EPHB4) [% Ctrl] | % Ctrl (EGFR(L861Q)) [% Ctrl] | % Ctrl (ROS1) [% Ctrl] | % Ctrl (HIPK1) [% Ctrl] | % Ctrl (PIK3CB) [% Ctrl] | % Ctrl (DRAK2) [% Ctrl] | % Ctrl (IKK-epsilon) [% Ctrl] | % Ctrl (CAMK1G) [% Ctrl] | % Ctrl (WEE1) [% Ctrl] | % Ctrl (MAP4K3) [% Ctrl] | also measured
1 | CN(C)C(=O)c1ccc(N2CCCN(c3ccnc4sc(C(N)=O)c(N)c34)CC2)cc1 [15u, 3-amino-4-(4-(4-(dimethylcarbamoyl)phenyl)-1,4-diazepan-1-yl)thieno[2,3-b]pyridine-2-carboxamide] | 13 | 99 | 100 | 100 | 68 | 79 | 97 | 99 | 91 | 100 | 100 | 78 | 95 | 86 | 100 | 100 | 100 | 99 | 100 | 91 | % Ctrl (NEK7): 100 % Ctrl; % Ctrl (EPHA3): 100 % Ctrl; % Ctrl (FLT3(K663Q)): 96 % Ctrl; % Ctrl (AKT3): 97 % Ctrl; % Ctrl (CDKL3): 100 % Ctrl; % Ctrl (TXK): 93 % Ctrl; % Ctrl (SNARK): 100 % Ctrl; % Ctrl (QSK): 89 % Ctrl; % Ctrl (STK35): 87 % Ctrl; % Ctrl (RIPK5): 100 % Ctrl; % Ctrl (AKT1): 100 % Ctrl; % Ctrl (PIK3CA(C420R)): 100 % Ctrl; % Ctrl (MKNK1): 94 % Ctrl; % Ctrl (PYK2): 97 % Ctrl; % Ctrl (NIK): 100 % Ctrl; % Ctrl (PRKCH): 80 % Ctrl
2 | [2H]C([2H])([2H])N(C(=O)c1ccc(N2CCCN(c3ccnc4sc(C(N)=O)c(N)c34)CC2)cc1)C([2H])([2H])[2H] [15u_D6, 3-amino-4-(4-(4-(bis(methyl-d3)carbamoyl)phenyl)-1,4-diazepan-1-yl)thieno[2,3-b]pyridine-2-carboxamide] | 0 | 93 | 86 | 75 | 30 | 76 | 85 | 96 | 99 | 81 | 100 | 100 | 100 | 71 | 95 | 87 | 100 | 99 | 88 | 95 | % Ctrl (NEK7): 86 % Ctrl; % Ctrl (EPHA3): 87 % Ctrl; % Ctrl (FLT3(K663Q)): 91 % Ctrl; % Ctrl (AKT3): 100 % Ctrl; % Ctrl (CDKL3): 100 % Ctrl; % Ctrl (TXK): 100 % Ctrl; % Ctrl (SNARK): 78 % Ctrl; % Ctrl (QSK): 97 % Ctrl; % Ctrl (STK35): 93 % Ctrl; % Ctrl (RIPK5): 72 % Ctrl; % Ctrl (AKT1): 100 % Ctrl; % Ctrl (PIK3CA(C420R)): 86 % Ctrl; % Ctrl (MKNK1): 79 % Ctrl; % Ctrl (PYK2): 84 % Ctrl; % Ctrl (NIK): 97 % Ctrl; % Ctrl (PRKCH): 96 % Ctrl
